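Growth conditions: 96-well plates. Treatment: test compound, 48 hours, 5 concentrations. Analysis: linear interpolation between bracketing concentrations; unreached endpoints set to highest concentration. Here, GI50 denotes the concentration required for 50% inhibition of growth. At the TGI there is no net growth.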
Assays:
Test in all cases: growth of human tumour cells (NCI), 48 h
[1] = tested on: HCT-15 colon
[2] = tested on: EKVX NSCLC
[3] = tested on: OVCAR-4 ovarian
[4] = tested on: HCC-2998 colon
[5] = tested on: SNB-19 CNS
[6] = tested on: COLO 205 colon
[7] = tested on: U251 CNS
[8] = tested on: NCI-H522 lung
[9] = tested on: SW-620 colon
[10] = tested on: SN12C renal
[11] = tested on: A549 NSCLC
[12] = tested on: KM20L2 colon
[13] = tested on: NCI-H23 lung
[14] = tested on: SF-539 CNS
[15] = tested on: SF-268 CNS
[16] = tested on: RPMI-8226 leukemia
[17] = tested on: OVCAR-8 ovarian
[18] = tested on: DMS 273 small cell lung
[19] = tested on: NCI-H460 lung
[20] = tested on: SF-295 CNS
[21] = tested on: IGROV1 ovarian
[22] = tested on: UO-31 renal
[23] = tested on: SR leukemia
[24] = tested on: OVCAR-3 ovarian
[25] = tested on: MALME-3M melanoma
[26] = tested on: OVCAR-5 ovarian
[27] = tested on: HOP-18 NSCLC
[28] = tested on: 786-0 renal
[29] = tested on: HCT-116 colon
[30] = tested on: CAKI-1 renal
[31] = tested on: SK-MEL-5 melanoma
[32] = tested on: LOX IMVI melanoma
[33] = tested on: RXF 393 renal
[34] = tested on: M14 melanoma
[35] = tested on: TK-10 renal
[36] = tested on: SK-MEL-28 melanoma
[37] = tested on: UACC-62 melanoma
[38] = tested on: NCI-H226 lung
[39] = tested on: LXFL 529 NSCLC
[40] = tested on: SNB-78 CNS
[41] = tested on: SK-MEL-2 melanoma
[42] = tested on: SNB-75 CNS
[43] = tested on: DLD-1 colon
[44] = tested on: KM12 colon
[45] = tested on: UACC-257 melanoma
[46] = tested on: HOP-92 NSCLC
[47] = tested on: HT29 colon
[48] = tested on: HL-60(TB) leukemia
[49] = tested on: ACHN renal
[50] = tested on: M19-MEL melanoma
[51] = tested on: MOLT-4 leukemia
[52] = tested on: A498 renal
[53] = tested on: SK-OV-3 ovarian
[54] = tested on: CCRF-CEM leukemia
[55] = tested on: K-562 leukemia

N.N.N.N.N.N#N.[Cl-].[Os+7]
GI50 [1]: > 100 µM
TGI [1]: > 100 µM
GI50 [2]: > 100 µM
TGI [2]: > 100 µM
GI50 [3]: > 100 µM
TGI [3]: > 100 µM
GI50 [4]: > 100 µM
TGI [4]: > 100 µM
GI50 [5]: > 100 µM
TGI [5]: > 100 µM
GI50 [6]: > 100 µM
TGI [6]: > 100 µM
GI50 [7]: > 100 µM
TGI [7]: > 100 µM
GI50 [8]: > 100 µM
TGI [8]: > 100 µM
GI50 [9]: > 100 µM
TGI [9]: > 100 µM
GI50 [10]: > 100 µM
TGI [10]: > 100 µM
GI50 [11]: > 100 µM
TGI [11]: > 100 µM
GI50 [12]: > 100 µM
TGI [12]: > 100 µM
GI50 [13]: > 100 µM
TGI [13]: > 100 µM
GI50 [14]: > 100 µM
TGI [14]: > 100 µM
GI50 [15]: > 100 µM
TGI [15]: > 100 µM
GI50 [16]: > 100 µM
TGI [16]: > 100 µM
GI50 [17]: > 100 µM
TGI [17]: > 100 µM
GI50 [18]: > 100 µM
TGI [18]: > 100 µM
GI50 [19]: > 100 µM
TGI [19]: > 100 µM
GI50 [20]: > 100 µM
TGI [20]: > 100 µM
GI50 [21]: > 100 µM
TGI [21]: > 100 µM
GI50 [22]: > 100 µM
TGI [22]: > 100 µM
GI50 [23]: > 100 µM
TGI [23]: > 100 µM
GI50 [24]: > 100 µM
TGI [24]: > 100 µM
GI50 [25]: > 100 µM
TGI [25]: > 100 µM
GI50 [26]: > 100 µM
TGI [26]: > 100 µM
GI50 [27]: > 100 µM
TGI [27]: > 100 µM
GI50 [28]: > 100 µM
TGI [28]: > 100 µM
GI50 [29]: > 100 µM
TGI [29]: > 100 µM
GI50 [30]: > 100 µM
TGI [30]: > 100 µM
GI50 [31]: > 100 µM
TGI [31]: > 100 µM
GI50 [32]: > 100 µM
TGI [32]: > 100 µM
GI50 [33]: > 100 µM
TGI [33]: > 100 µM
GI50 [34]: > 100 µM
TGI [34]: > 100 µM
GI50 [35]: > 100 µM
TGI [35]: > 100 µM
GI50 [36]: > 100 µM
TGI [36]: > 100 µM
GI50 [37]: > 100 µM
TGI [37]: > 100 µM
GI50 [38]: > 100 µM
TGI [38]: > 100 µM
GI50 [39]: > 100 µM
TGI [39]: > 100 µM
GI50 [40]: > 100 µM
TGI [40]: > 100 µM
GI50 [41]: > 100 µM
TGI [41]: > 100 µM
GI50 [42]: > 100 µM
TGI [42]: > 100 µM
GI50 [43]: > 100 µM
TGI [43]: > 100 µM
GI50 [44]: > 100 µM
TGI [44]: > 100 µM

CC1C(/C=C/c2ccoc2)ON2CCCC12 (centres undefined)
TGI [2]: > 100 µM
TGI [3]: > 100 µM
TGI [4]: > 100 µM
TGI [5]: > 100 µM
TGI [6]: > 100 µM
TGI [7]: > 100 µM
TGI [45]: > 100 µM
TGI [8]: > 100 µM
TGI [9]: > 100 µM
TGI [10]: > 100 µM
TGI [12]: > 100 µM
TGI [13]: > 100 µM
TGI [14]: > 100 µM
TGI [15]: > 100 µM
TGI [17]: > 100 µM
TGI [18]: > 100 µM
TGI [19]: > 100 µM
TGI [20]: > 100 µM
TGI [46]: > 100 µM
TGI [22]: > 100 µM
TGI [25]: > 100 µM
TGI [26]: > 100 µM
TGI [27]: > 100 µM
TGI [28]: > 100 µM
TGI [47]: > 100 µM
TGI [30]: > 100 µM
TGI [32]: > 100 µM
TGI [33]: > 100 µM
TGI [35]: > 100 µM
TGI [36]: > 100 µM
TGI [38]: > 100 µM
TGI [39]: > 100 µM
TGI [48]: > 100 µM
TGI [40]: > 100 µM
TGI [41]: > 100 µM
TGI [49]: > 100 µM
TGI [50]: > 100 µM
TGI [42]: > 100 µM
TGI [43]: > 100 µM

CSc1c(S(C)=O)[nH]c2cc(Br)cc(Br)c12 (centres undefined)
TGI [1]: 70.8 µM
TGI [2]: 59.7 µM
TGI [51]: 61.5 µM
TGI [4]: 34.7 µM
TGI [6]: 33.1 µM
TGI [45]: > 100 µM
TGI [8]: 55.5 µM
TGI [9]: > 100 µM
TGI [10]: 33.9 µM
TGI [11]: 78.9 µM
TGI [13]: 50.4 µM
TGI [14]: 47.5 µM
TGI [16]: 57.7 µM
TGI [17]: 61.8 µM
TGI [18]: 35.1 µM
TGI [19]: 35.1 µM
TGI [20]: 45.2 µM
TGI [46]: 32.1 µM
TGI [21]: > 100 µM
TGI [22]: 48.7 µM
TGI [24]: 45 µM
TGI [25]: 48.8 µM
TGI [27]: 80.5 µM
TGI [28]: 31.9 µM
TGI [29]: 32.7 µM
TGI [47]: 72.1 µM
TGI [30]: 74.3 µM
TGI [31]: 38.1 µM
TGI [52]: 62.1 µM
TGI [32]: 31.9 µM
TGI [53]: 61.9 µM
TGI [33]: 33.6 µM
TGI [34]: 61.5 µM
TGI [35]: 78.1 µM
TGI [36]: 43.4 µM
TGI [37]: 39.3 µM
TGI [38]: 67.9 µM
TGI [39]: 48.8 µM
TGI [48]: 52.3 µM
TGI [40]: 57 µM
TGI [49]: 88.2 µM
TGI [50]: 75.4 µM
TGI [54]: 58.5 µM
TGI [42]: 50.9 µM
TGI [43]: 51.9 µM
TGI [55]: 72.3 µM
TGI [44]: 62.6 µM

Source: PubChem BioAssay (NCI)
